This assay deals with T1, Mtb cytochrome bd (Mycobacterium tuberculosis, UniProt L7N662+O06139).
T1 sequence (L7N662 1-485): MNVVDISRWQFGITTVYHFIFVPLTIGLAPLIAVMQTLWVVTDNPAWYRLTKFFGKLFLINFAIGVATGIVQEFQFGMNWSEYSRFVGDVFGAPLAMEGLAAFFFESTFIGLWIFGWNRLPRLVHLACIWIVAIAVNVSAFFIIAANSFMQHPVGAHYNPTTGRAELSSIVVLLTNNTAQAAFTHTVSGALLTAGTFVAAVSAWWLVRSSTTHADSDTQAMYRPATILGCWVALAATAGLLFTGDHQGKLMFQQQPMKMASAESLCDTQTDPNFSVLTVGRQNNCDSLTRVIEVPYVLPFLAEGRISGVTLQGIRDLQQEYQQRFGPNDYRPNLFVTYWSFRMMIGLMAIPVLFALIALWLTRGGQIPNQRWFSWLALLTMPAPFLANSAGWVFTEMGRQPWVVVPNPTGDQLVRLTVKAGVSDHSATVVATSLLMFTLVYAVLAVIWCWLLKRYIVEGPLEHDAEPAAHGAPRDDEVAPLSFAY
T1 sequence (O06139 1-346): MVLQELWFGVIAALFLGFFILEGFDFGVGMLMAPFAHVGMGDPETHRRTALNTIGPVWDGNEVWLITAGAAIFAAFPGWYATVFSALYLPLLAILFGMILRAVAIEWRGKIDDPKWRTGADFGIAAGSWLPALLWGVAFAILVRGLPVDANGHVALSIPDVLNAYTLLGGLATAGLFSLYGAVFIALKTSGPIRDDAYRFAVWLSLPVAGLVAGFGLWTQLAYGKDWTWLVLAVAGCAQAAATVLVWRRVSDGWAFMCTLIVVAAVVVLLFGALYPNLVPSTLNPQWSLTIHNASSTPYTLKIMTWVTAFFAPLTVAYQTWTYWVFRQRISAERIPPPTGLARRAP
It is filed as biochemical. The conditions noted are these: read-out: % remaining OCR at 10 μM.

As to `CC(C)(c1cc(Br)c(OCC(O)CN2CCN(Cc3ccccc3)CC2)c(Br)c1)c1cc(Br)c(OCC(O)CN2CCN(Cc3ccccc3)CC2)c(Br)c1` (stereo not drawn) [F0777-1198], the remaining activity at 10 µM was 51%.

Turning to `C=CCSc1ncc(-c2ccccc2)n1-c1ccc(C)cc1` [F2964-1180], the remaining activity at 10 µM is 50.6%.

For `CCOc1ccc(-c2nc(CSc3nc4ccccc4c(=O)n3CCCN3CCCC3=O)c(C)o2)cc1` [F3382-2259], the remaining activity at 10 µM was 30.4%.

These data come from article doi:10.1101/2024.02.28.582612v1 (biorxiv, 2024).
